A short description of series [1]: Bidirectional Caco-2 permeability assay. The class given is in vitro ADME. The conditions noted are these: human, Caco-2. The procedure, abridged:
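Caco-2 monolayers (passage 39, 19-day culture, TEER >600 Ohms/cm^2) dosed A→B and B→A in duplicate, 90 min at 37 °C without shaking. Donor and receiver samples at 10 and 90 min quantified by LC/MS/MS. Papp (cm/s), efflux ratio and recovery calculated; ER >2 flags potential efflux substrate.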
(In general: Caco-2 cells form a polarised layer with tight junctions and transporters.)

A short description of series [2]: Stability in human fasted-state simulated gastric fluid and fasted-state simulated intestinal fluid. The class given is physicochemical. As to conditions: timepoints 0-120 min. The procedure: The chemical stability of example compounds was determined using human fasted-state simulated gastric fluid, and fasted-state simulated intestinal fluid, prepared as follows.
• Weigh 1.0 g NaCl and dissolved it in 0.49 L water • Adjust pH value to 1.2, and adjust volume to 0.5 L in water • Filter the NaCl/HCl buffer through a 0.22 μm filter • Weigh 3.0 mg FaSSGF powder (Vendor: Biorelevant, catalog #FFF01), dissolve it in 50 mL NaCl/HCl buffer • Dissolve the FaSSGF powder in NaCl/HCl buffer and make up the volume to 50 mL • Store at 4° C. for future use.
• Weigh 0.695 g NaOH, 1.115 g maleic acid and 2.005 g NaCl, and dissolve in 0.49 L water • Adjusted the pH value to 6.8 and adjust volume to 0.5 L with water • Filter the maleic acid buffer through a 0.22 μm filter • Weigh 89.5 mg FaSSIF-V2 powder (Vendor: Biorelevant catalog #V2FAS01), dissolve in 50 mL maleic buffer • Dissolve the FaSSIF-V2 powder in maleic buffer and make up the volume to 50 mL • Store at 4° C. for future use.
Briefly, test compounds were prepared as 50 μM working solutions in DMSO, and 2 μL test compound working solution was added to 98 μL of each buffer respectively in six tubes (for six timepoints, 0, 5, 15, 30, 60, and 120 min) and gently mixed. At each corresponding timepoint, the reaction was stopped by addition of 300 μL of quenching solution (methanol solution of 5 ng/mL terfenadine and 10 ng/mL of tolbutamide). Each tube was vortexed for 1 min, centrifuged at 4,000 rpm at 4° C. for 15 min, then 200 μL of supernatant was removed. The half-life of each example compound was determined using LC-MS/MS analysis, using the internal standards present in the quenching solution.

Where [3] appears, read: fasted-state simulated gastric fluid (FaSSGF), human fasted-state simulated gastric fluid, pH 1.2, LC-MS/MS, read-out: FaSSGF t1/2.
Setting [4] is: human fasted-state simulated intestinal fluid (FaSSIF-V2), pH 6.8, LC-MS/MS, read-out: FaSSIF t1/2.

Each structure is given as a SMILES string. Like-named read-outs stand apart in the source and are kept apart here. Where only a bound is given, the exact number is not on record here.

`CCCC(=O)Nc1ncnn2c([C@]3(C#N)O[C@H](COC(=O)CC4CCCCC4)[C@@H](OC(=O)[C@@H](N)C(C)(C)C)[C@H]3O)ccc12` [Compound 1, (2R,3S,4R,5R)-5-(4-butyramidopyrrolo[2,1-f][1,2,4]triazin-7-yl)-5-cyano-2-((2-cyclohexylacetoxy)methyl)-4-hydroxytetrahydrofuran-3-yl (S)-2-amino-3,3-dimethylbutanoate]: in series [1], the Papp A→B (as a rule, the apparent permeability from the apical to the basolateral side of a cell layer) at 90 min came out at 6.8 ×10⁻⁶ cm/s; the Papp B→A (as a rule, the apparent permeability from the basolateral to the apical side of a cell layer) at 90 min was 8.72 ×10⁻⁶ cm/s; the efflux ratio (as a rule, the permeability from basolateral to apical divided by that in the opposite direction, in the common usage) at 90 min was 1.28. Moreover, the half-life at 1 µM in series [2] (setting [3]) was 1.61 h. For the same compound, the half-life at 1 µM in series [2] (setting [4]) is greater than 6.22 h.
The like results for `CCC(CC)C(=O)Nc1ncnn2c([C@]3(C#N)O[C@H](COC(=O)CC4CCCCC4)[C@@H](OC(=O)[C@@H](N)C(C)(C)C)[C@H]3O)ccc12` [Compound 2, (2R,3S,4R,5R)-5-cyano-2-((2-cyclohexylacetoxy)methyl)-5-(4-(2-ethylbutanamido)pyrrolo[2,1-f][1,2,4]triazin-7-yl)-4-hydroxytetrahydrofuran-3-yl (S)-2-amino-3,3-dimethylbutanoate] were, in that order, 4.08 ×10⁻⁶ cm/s, 6.13 ×10⁻⁶ cm/s, 1.5, greater than 6.22 h and greater than 6.22 h.
On the same counts, the results for `COC(C)(C)C(=O)Nc1ncnn2c([C@]3(C#N)O[C@H](COC(=O)CC4CCCCC4)[C@@H](OC(=O)[C@@H](N)C(C)(C)C)[C@H]3O)ccc12` [Compound 3, (2R,3S,4R,5R)-5-cyano-2-((2-cyclohexylacetoxy)methyl)-4-hydroxy-5-(4-(2-methoxy-2-methylpropanamido)pyrrolo[2,1-f][1,2,4]triazin-7-yl)tetrahydrofuran-3-yl (S)-2-amino-3,3-dimethylbutanoate] are 8.49 ×10⁻⁶ cm/s, 9.3 ×10⁻⁶ cm/s, 1.1, 0.347 h and greater than 6.22 h.
As for `CC(C)(C)[C@@H](N)C(=O)OC[C@H]1O[C@@](C#N)(c2ccc3c(N)ncnn23)[C@H](O)[C@@H]1OC(=O)CC1CCCCC1` [Compound 37, ((2R,3S,4R,5R)-5-(4-aminopyrrolo[2,1-f][1,2,4]triazin-7-yl)-5-cyano-3-(2-cyclohexylacetoxy)-4-hydroxytetrahydrofuran-2-yl)methyl (R)-2-amino-3,3-dimethylbutanoate], the efflux ratio at 90 min in series [1] is 2.95. For the same compound, the half-life at 1 µM in series [2] (setting [3]) and in series [2] (setting [4]) was greater than 6.21 h throughout.
With `CCCCOC(C)(C)C(=O)Nc1ncnn2c([C@]3(C#N)O[C@H](COC(=O)CC4CCCCCC4)[C@@H](OC(=O)[C@@H](N)C(C)(C)C)[C@H]3O)ccc12` [Compound 72, (2R,3S,4R,5R)-5-(4-(2-butoxy-2-methylpropanamido)pyrrolo[2,1-f][1,2,4]triazin-7-yl)-5-cyano-2-((2-cycloheptylacetoxy)methyl)-4-hydroxytetrahydrofuran-3-yl(S)-2-amino-3,3-dimethylbutanoate], in series [1], the Papp A→B at 90 min came out at 0.09 ×10⁻⁶ cm/s, the Papp B→A at 90 min was found to be 7.6 ×10⁻⁶ cm/s and the efflux ratio at 90 min was found to be 88.8.
Take `CCCCOC(C)(C)C(=O)Nc1ncnn2c([C@]3(C#N)O[C@H](COC(=O)CC4CCCCC4)[C@@H](OC(=O)[C@H](N)C(C)(C)C)[C@H]3O)ccc12` [Compound 73, (2R,3S,4R,5R)-5-(4-(2-butoxy-2-methylpropanamido)pyrrolo[2,1-f][1,2,4]triazin-7-yl)-5-cyano-2-((2-cyclohexylacetoxy)methyl)-4-hydroxytetrahydrofuran-3-yl (R)-2-amino-3,3-dimethylbutanoate]: in series [1], the Papp A→B at 90 min was 0.24 ×10⁻⁶ cm/s, the Papp B→A at 90 min turned out to be 0.53 ×10⁻⁶ cm/s and the efflux ratio at 90 min was 2.23.
Regarding `CCCCOC(C)(C)C(=O)Nc1ncnn2c([C@]3(C#N)O[C@H](COC(=O)CC4CCCCC4)[C@@H](OC(=O)[C@@H](N)C(C)(C)C)[C@H]3O)ccc12` [Compound 74, (2R,3S,4R,5R)-5-(4-(2-butoxy-2-methylpropanamido)pyrrolo[2,1-f][1,2,4]triazin-7-yl)-5-cyano-2-((2-cyclohexylacetoxy)methyl)-4-hydroxytetrahydrofuran-3-yl (S)-2-amino-3,3-dimethylbutanoate], in series [1], the Papp A→B at 90 min came out at 0.41 ×10⁻⁶ cm/s, the Papp B→A at 90 min was 0.41 ×10⁻⁶ cm/s and the efflux ratio at 90 min was 1.
For the compound `CCCCOC(C)(C)C(=O)Nc1ncnn2c([C@]3(C#N)O[C@H](COC(=O)CC4CCCCCC4)[C@@H](OC(=O)[C@H](N)C(C)(C)C)[C@H]3O)ccc12` [Compound 75, (2R,3S,4R,5R)-5-(4-(2-butoxy-2-methylpropanamido)pyrrolo[2,1-f][1,2,4]triazin-7-yl)-5-cyano-2-((2-cycloheptylacetoxy)methyl)-4-hydroxytetrahydrofuran-3-yl(R)-2-amino-3,3-dimethylbutanoate], in series [1], the Papp A→B at 90 min was 0.22 ×10⁻⁶ cm/s, the Papp B→A at 90 min stood at 0.12 ×10⁻⁶ cm/s and the efflux ratio at 90 min came to 0.52.
The like results for `CCC(CC)C(=O)Nc1ncnn2c([C@]3(C#N)O[C@H](COC(=O)CC4CCCC4)[C@@H](OC(=O)[C@H](N)C(C)(C)C)[C@H]3O)ccc12` [Compound 76, (2R,3S,4R,5R)-5-cyano-2-((2-cyclopentylacetoxy)methyl)-5-(4-(2-ethylbutanamido)pyrrolo[2,1-f][1,2,4]triazin-7-yl)-4-hydroxytetrahydrofuran-3-yl (R)-2-amino-3,3-dimethylbutanoate] were, in that order, 2.5 ×10⁻⁶ cm/s, 2.4 ×10⁻⁶ cm/s and 1.
On the same counts, the results for `CCC(CC)C(=O)Nc1ncnn2c([C@]3(C#N)O[C@H](COC(=O)CC4CCCCCC4)[C@@H](OC(=O)[C@H](N)C(C)(C)C)[C@H]3O)ccc12` [Compound 77, (2R,3S,4R,5R)-5-cyano-2-((2-cycloheptylacetoxy)methyl)-5-(4-(2-ethylbutanamido)pyrrolo[2,1-f][1,2,4]triazin-7-yl)-4-hydroxytetrahydrofuran-3-yl (R)-2-amino-3,3-dimethylbutanoate] are 1 ×10⁻⁶ cm/s, 1.6 ×10⁻⁶ cm/s and 1.7.
